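Five concentrations, 48 hours, 96-well plates. The concentration for 50% growth inhibition is given as GI50.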 Activity calls are given as the source filed them. No stated cut-off is given here; in the data, active = GI50 up to about 1.1 µM and inactive = higher.
What was measured:
Assay in all cases: NCI-60 cell line screen, 48 h
[1] = system: KM-20L2
[2] = system: M19-MEL
[3] = system: XF498
[4] = system: EKVX
[5] = system: SR
[6] = system: NCI-H23
[7] = system: COLO 205
[8] = system: SK-MEL-2
[9] = system: LXFL 529
[10] = system: RPMI-8226
[11] = system: U-251
[12] = system: SF-539
[13] = system: OVCAR-3
[14] = system: SW-620
[15] = system: ACHN
[16] = system: NCI-H226
[17] = system: HT-29
[18] = system: SNB-75
[19] = system: SK-MEL-28
[20] = system: CCRF-CEM
[21] = system: SNB-19
[22] = system: SNB-78
[23] = system: DLD-1
[24] = system: RXF 631
[25] = system: KM12
[26] = system: HCT-116
[27] = system: OVCAR-8
[28] = system: 786-0
[29] = system: LOX IMVI
[30] = system: HCT-15
[31] = system: A498
[32] = system: HOP-18
[33] = system: UACC-62
[34] = system: K562
[35] = system: SF-295
[36] = system: OVCAR-4
[37] = system: HOP-62
[38] = system: A549
[39] = system: MOLT-4
[40] = system: HOP-92
[41] = system: IGROV-1
[42] = system: SN12C
[43] = system: Malme-3M
[44] = system: SF-268
[45] = system: OVCAR-5
[46] = system: M14
[47] = system: RXF 393
[48] = system: UACC-257
[49] = system: TK-10
[50] = system: CAKI-1
[51] = system: NCI-H460
[52] = system: NCI-H522
[53] = system: SK-OV-3
[54] = system: UO-31
[55] = system: DMS-114
[56] = system: HL-60
[57] = system: SK-MEL-5
[58] = system: DMS-273
[59] = system: HCC 2998

CC(C)N(CCn1c2c3ccccc3ccc2c2oc(=O)c3ccccc3c21)C(C)C
GI50 [1]: > 100 µM (inactive) | GI50 [2]: > 100 µM (inactive) | GI50 [3]: 75.7 µM (inactive) | GI50 [4]: > 100 µM (inactive) | GI50 [5]: > 100 µM (inactive) | GI50 [6]: > 100 µM (inactive) | GI50 [7]: > 100 µM (inactive) | GI50 [8]: > 100 µM (inactive) | GI50 [9]: > 100 µM (inactive) | GI50 [10]: > 100 µM (inactive) | GI50 [11]: > 86.9 µM (inactive) | GI50 [12]: > 43.3 µM (inactive) | GI50 [13]: > 100 µM (inactive) | GI50 [14]: > 100 µM (inactive) | GI50 [15]: > 100 µM (inactive) | GI50 [16]: > 100 µM (inactive) | GI50 [17]: > 100 µM (inactive) | GI50 [18]: 25.2 µM (inactive) | GI50 [19]: > 100 µM (inactive) | GI50 [20]: > 100 µM (inactive) | GI50 [21]: 65.8 µM (inactive) | GI50 [22]: 98.9 µM (inactive) | GI50 [23]: > 100 µM (inactive) | GI50 [24]: > 100 µM (inactive) | GI50 [25]: > 100 µM (inactive) | GI50 [26]: > 100 µM (inactive) | GI50 [27]: > 48.6 µM (inactive) | GI50 [28]: 50.4 µM (inactive) | GI50 [29]: > 100 µM (inactive) | GI50 [30]: > 100 µM | GI50 [31]: > 100 µM (inactive) | GI50 [32]: 32.7 µM (inactive) | GI50 [33]: > 100 µM (inactive) | GI50 [34]: > 100 µM (inactive) | GI50 [35]: > 52.2 µM (inactive) | GI50 [36]: > 100 µM (inactive) | GI50 [37]: > 23.1 µM (inactive) | GI50 [38]: > 100 µM (inactive) | GI50 [39]: > 100 µM (inactive) | GI50 [40]: > 54.3 µM (inactive) | GI50 [41]: > 100 µM (inactive) | GI50 [42]: > 100 µM (inactive) | GI50 [43]: > 100 µM (inactive) | GI50 [44]: > 69.7 µM (inactive) | GI50 [45]: > 100 µM (inactive) | GI50 [46]: > 100 µM (inactive) | GI50 [47]: > 100 µM (inactive) | GI50 [48]: > 54.8 µM (inactive) | GI50 [49]: > 100 µM (inactive) | GI50 [50]: > 100 µM (inactive) | GI50 [51]: > 100 µM (inactive) | GI50 [52]: > 100 µM (inactive) | GI50 [53]: > 100 µM (inactive) | GI50 [54]: > 100 µM (inactive) | GI50 [55]: > 100 µM (inactive) | GI50 [56]: > 100 µM (inactive)

C/C(CCn1[nH]c(=O)ccc1=O)=N\NC(=O)C(=O)NN
GI50 [1]: > 100 µM (inactive) | GI50 [2]: > 100 µM (inactive) | GI50 [3]: > 100 µM (inactive) | GI50 [4]: > 100 µM (inactive) | GI50 [6]: > 100 µM (inactive) | GI50 [57]: > 100 µM (inactive) | GI50 [7]: > 100 µM (inactive) | GI50 [8]: > 100 µM (inactive) | GI50 [9]: > 100 µM (inactive) | GI50 [10]: > 100 µM (inactive) | GI50 [12]: > 100 µM (inactive) | GI50 [13]: > 100 µM (inactive) | GI50 [14]: > 100 µM (inactive) | GI50 [15]: > 100 µM (inactive) | GI50 [16]: > 100 µM (inactive) | GI50 [17]: > 100 µM (inactive) | GI50 [58]: > 100 µM (inactive) | GI50 [19]: > 100 µM (inactive) | GI50 [20]: > 100 µM (inactive) | GI50 [21]: > 100 µM (inactive) | GI50 [23]: > 100 µM (inactive) | GI50 [24]: > 100 µM (inactive) | GI50 [25]: > 100 µM (inactive) | GI50 [27]: > 100 µM (inactive) | GI50 [28]: > 100 µM (inactive) | GI50 [29]: > 100 µM (inactive) | GI50 [30]: > 100 µM | GI50 [31]: 43.8 µM (inactive) | GI50 [32]: > 100 µM (inactive) | GI50 [33]: > 100 µM (inactive) | GI50 [34]: > 100 µM (inactive) | GI50 [35]: > 100 µM (inactive) | GI50 [36]: > 100 µM (inactive) | GI50 [37]: > 100 µM (inactive) | GI50 [38]: > 100 µM (inactive) | GI50 [39]: > 100 µM (inactive) | GI50 [41]: > 100 µM (inactive) | GI50 [42]: > 100 µM (inactive) | GI50 [43]: > 100 µM (inactive) | GI50 [44]: > 100 µM (inactive) | GI50 [45]: > 100 µM (inactive) | GI50 [46]: > 100 µM (inactive) | GI50 [47]: > 100 µM (inactive) | GI50 [59]: > 100 µM (inactive) | GI50 [48]: > 100 µM (inactive) | GI50 [49]: > 100 µM (inactive) | GI50 [50]: > 100 µM (inactive) | GI50 [51]: > 100 µM (inactive) | GI50 [52]: > 100 µM (inactive) | GI50 [53]: > 100 µM (inactive) | GI50 [54]: > 100 µM (inactive) | GI50 [56]: > 100 µM (inactive)

Cc1ccc(-n2c3nc(=O)n(C)c(=O)c-3nc3ccccc32)c(C)c1
GI50 [1]: 4.92 µM (inactive) | GI50 [2]: 1.63 µM (inactive) | GI50 [3]: 13.1 µM (inactive) | GI50 [4]: 8.67 µM (inactive) | GI50 [6]: 1.9 µM (inactive) | GI50 [57]: 4.73 µM (inactive) | GI50 [7]: 3.46 µM (inactive) | GI50 [8]: 12.9 µM (inactive) | GI50 [9]: 11.3 µM (inactive) | GI50 [10]: 12.8 µM (inactive) | GI50 [11]: 15.8 µM (inactive) | GI50 [12]: 13.2 µM (inactive) | GI50 [13]: 2.5 µM (inactive) | GI50 [14]: 5.57 µM (inactive) | GI50 [15]: 3.58 µM (inactive) | GI50 [16]: 14.9 µM (inactive) | GI50 [17]: 3.28 µM (inactive) | GI50 [18]: 13.3 µM (inactive) | GI50 [58]: 4.34 µM (inactive) | GI50 [20]: 14.8 µM (inactive) | GI50 [21]: 5.28 µM (inactive) | GI50 [22]: 21.5 µM (inactive) | GI50 [23]: 15 µM (inactive) | GI50 [24]: 7.05 µM (inactive) | GI50 [25]: 8.18 µM (inactive) | GI50 [26]: 11.8 µM (inactive) | GI50 [27]: 8.18 µM (inactive) | GI50 [28]: 5.83 µM (inactive) | GI50 [29]: 12.6 µM (inactive) | GI50 [30]: 9.62 µM | GI50 [31]: > 10 µM (inactive) | GI50 [32]: 6.62 µM (inactive) | GI50 [33]: 2.33 µM (inactive) | GI50 [34]: 16.4 µM (inactive) | GI50 [35]: 10.7 µM (inactive) | GI50 [36]: 12 µM (inactive) | GI50 [37]: 24.3 µM (inactive) | GI50 [38]: 4.74 µM (inactive) | GI50 [39]: 13.9 µM (inactive) | GI50 [41]: 15.1 µM (inactive) | GI50 [42]: 10.9 µM (inactive) | GI50 [43]: 3.92 µM (inactive) | GI50 [44]: 15.4 µM (inactive) | GI50 [45]: 18.7 µM (inactive) | GI50 [46]: 4.76 µM (inactive) | GI50 [47]: 14.6 µM (inactive) | GI50 [59]: 5.16 µM (inactive) | GI50 [48]: 3.6 µM (inactive) | GI50 [49]: 13.2 µM (inactive) | GI50 [50]: 27.6 µM (inactive) | GI50 [51]: 3.49 µM (inactive) | GI50 [52]: 15.4 µM (inactive) | GI50 [53]: 35.1 µM (inactive) | GI50 [54]: 24.3 µM (inactive) | GI50 [56]: 6.49 µM (inactive)
